# Active and inactive are the calls of the source.
# Tests used:
# HEK293 = experiment: viability loss in HEK293T cells – cell-based, ATP luminescence, cherry-pick samples, cytotoxicity control, dose response (AID 687005); format: functional; details: Homo sapiens;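 note: cells exposed to compound for 48 hours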
# [1] = HEK293 Cytotoxicity Assay Measured in Cell-Based System Using Plate Reader - 7071-01_Inhibitor_Dose_CherryPick_Activity_Set2.; format: functional
# cells [2] = experiment: cells
# [3] = target: T1, RNA-binding protein pos-1 (Caenorhabditis elegans, UniProt G5EF15); experiment: disruptors of C. elegans POS-1 RNA interaction – biochemical, fluorescence polarization, dose response (AID 1964);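 note: purified POS-1 fused to maltose binding protein made in E. coli; potency of compounds blocking POS-1 binding to fluorescent RNA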
# T1 sequence (G5EF15 whole entry): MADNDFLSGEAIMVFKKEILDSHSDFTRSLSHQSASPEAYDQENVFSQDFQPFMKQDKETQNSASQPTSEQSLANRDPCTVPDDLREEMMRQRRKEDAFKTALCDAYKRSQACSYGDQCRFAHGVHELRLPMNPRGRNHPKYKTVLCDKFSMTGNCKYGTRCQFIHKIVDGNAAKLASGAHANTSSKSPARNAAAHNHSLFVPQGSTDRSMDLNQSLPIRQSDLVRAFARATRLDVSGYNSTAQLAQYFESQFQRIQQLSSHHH
# [4] = target: T2, Zinc finger protein mex-5 (Caenorhabditis elegans, UniProt Q9XUB2); experiment: potency of MEX-5 RNA-binding blockers – biochemical, C. elegans, fluorescence polarization, dose response (AID 1960)
# T2 sequence (Q9XUB2 whole entry): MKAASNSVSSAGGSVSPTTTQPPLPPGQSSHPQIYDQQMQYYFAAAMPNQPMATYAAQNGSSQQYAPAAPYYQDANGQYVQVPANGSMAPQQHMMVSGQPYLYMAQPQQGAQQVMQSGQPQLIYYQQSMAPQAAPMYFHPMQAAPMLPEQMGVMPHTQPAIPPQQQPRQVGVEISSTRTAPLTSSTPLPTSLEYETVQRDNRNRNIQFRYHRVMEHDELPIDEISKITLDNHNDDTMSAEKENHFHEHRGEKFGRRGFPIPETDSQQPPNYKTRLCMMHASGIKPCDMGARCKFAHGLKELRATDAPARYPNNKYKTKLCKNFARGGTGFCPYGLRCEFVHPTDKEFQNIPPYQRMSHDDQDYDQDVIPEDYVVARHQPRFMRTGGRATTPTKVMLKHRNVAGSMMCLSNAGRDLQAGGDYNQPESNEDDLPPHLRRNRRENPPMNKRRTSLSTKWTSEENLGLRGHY
# [5] = target: Disintegrin and metalloproteinase domain-containing protein 17 (Homo sapiens, UniProt P78536); experiment: inhibition of ADAM17 substrate cleavage – biochemical, quenched FRET substrate, counter-screen for ADAM10 exosite inhibitor project, dose response (AID 743253)
# Chain of Disintegrin and metalloproteinase domain-containing protein 17 (P78536 whole entry, the tested form may be a part): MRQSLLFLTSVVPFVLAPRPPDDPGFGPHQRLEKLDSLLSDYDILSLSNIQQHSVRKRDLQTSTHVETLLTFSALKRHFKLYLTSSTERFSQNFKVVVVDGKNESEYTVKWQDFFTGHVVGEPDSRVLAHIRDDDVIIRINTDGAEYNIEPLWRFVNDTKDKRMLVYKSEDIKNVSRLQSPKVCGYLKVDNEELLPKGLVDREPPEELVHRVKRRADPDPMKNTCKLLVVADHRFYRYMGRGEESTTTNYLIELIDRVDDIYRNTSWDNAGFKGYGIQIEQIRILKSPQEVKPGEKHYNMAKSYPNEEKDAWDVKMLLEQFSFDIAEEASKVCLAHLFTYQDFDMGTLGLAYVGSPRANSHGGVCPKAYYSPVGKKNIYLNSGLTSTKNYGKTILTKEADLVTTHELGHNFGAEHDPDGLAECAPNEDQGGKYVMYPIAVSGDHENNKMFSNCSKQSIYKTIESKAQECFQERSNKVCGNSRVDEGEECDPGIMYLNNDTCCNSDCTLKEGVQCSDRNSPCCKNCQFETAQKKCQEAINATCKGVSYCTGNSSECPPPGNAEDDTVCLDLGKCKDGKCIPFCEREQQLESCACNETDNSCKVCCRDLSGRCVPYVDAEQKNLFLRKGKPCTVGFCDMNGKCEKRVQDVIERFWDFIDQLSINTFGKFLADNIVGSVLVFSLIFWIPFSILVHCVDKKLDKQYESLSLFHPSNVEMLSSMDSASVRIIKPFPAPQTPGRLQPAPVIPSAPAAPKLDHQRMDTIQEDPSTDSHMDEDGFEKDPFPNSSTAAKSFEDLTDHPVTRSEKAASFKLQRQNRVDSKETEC
# [6] = potency of ADAM10 substrate cleavage blockers – biochemical, QFRET, dose response (AID 743254);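 note: ADAM10 enzyme with the DM2 quenched FRET peptide as substrate; EDANS fluorescence gain as the protease cuts the substrate; inhibitor potency against ADAM10 proteolytic activity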
# [7] = target: T3, Endoribonuclease toxin MazF (Escherichia coli K-12, UniProt P0AE70); experiment: activation of MazEF endoribonuclease cleavage – biochemical, fluorescence, single-stranded RNA substrate, uHTS hits, dose response (AID 588481); format: functional
# T3 sequence (P0AE70 whole entry): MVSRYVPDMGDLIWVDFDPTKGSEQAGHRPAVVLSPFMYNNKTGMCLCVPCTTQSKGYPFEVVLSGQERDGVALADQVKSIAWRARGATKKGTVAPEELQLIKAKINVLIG
# [8] = target: T4, Sentrin-specific protease 7 (Homo sapiens, UniProt Q9BQF6); format: functional;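 note: Luminescence-based dose-response confirmation of ultra-high-throughput screening hits, measuring inhibition of SENP7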
# T4 sequence (Q9BQF6 whole entry): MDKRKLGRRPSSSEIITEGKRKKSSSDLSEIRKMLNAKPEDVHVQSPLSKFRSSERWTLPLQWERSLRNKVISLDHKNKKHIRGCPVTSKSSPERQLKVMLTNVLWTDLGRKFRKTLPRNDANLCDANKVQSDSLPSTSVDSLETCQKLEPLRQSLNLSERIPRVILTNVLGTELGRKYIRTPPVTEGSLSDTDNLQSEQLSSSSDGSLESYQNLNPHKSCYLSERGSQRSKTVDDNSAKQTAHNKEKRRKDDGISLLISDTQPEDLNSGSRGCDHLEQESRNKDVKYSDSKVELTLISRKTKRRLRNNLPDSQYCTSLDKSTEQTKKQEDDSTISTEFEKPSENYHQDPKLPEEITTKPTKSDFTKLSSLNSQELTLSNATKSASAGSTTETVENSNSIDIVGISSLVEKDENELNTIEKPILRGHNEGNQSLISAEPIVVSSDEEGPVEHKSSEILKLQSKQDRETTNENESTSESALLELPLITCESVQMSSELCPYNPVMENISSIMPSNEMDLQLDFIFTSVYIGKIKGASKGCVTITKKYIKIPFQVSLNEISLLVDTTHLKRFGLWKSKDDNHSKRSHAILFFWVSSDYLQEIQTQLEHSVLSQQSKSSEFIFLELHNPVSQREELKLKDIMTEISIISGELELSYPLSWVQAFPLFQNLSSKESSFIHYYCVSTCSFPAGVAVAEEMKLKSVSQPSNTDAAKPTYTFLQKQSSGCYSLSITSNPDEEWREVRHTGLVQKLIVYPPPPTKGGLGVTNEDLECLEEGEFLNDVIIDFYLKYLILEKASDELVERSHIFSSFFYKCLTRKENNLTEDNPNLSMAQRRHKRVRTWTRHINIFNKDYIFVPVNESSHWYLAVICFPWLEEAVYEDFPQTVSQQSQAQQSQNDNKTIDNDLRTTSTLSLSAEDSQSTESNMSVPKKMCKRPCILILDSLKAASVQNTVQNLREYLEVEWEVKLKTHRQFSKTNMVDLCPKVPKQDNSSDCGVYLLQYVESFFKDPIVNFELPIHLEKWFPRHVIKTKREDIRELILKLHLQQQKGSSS
# [9] = Luminescence-based cell-based high throughput dose response assay to identify activators of the DAF-12 from the parasite S. stercoralis (ssDAF-12).; format: functional
# Caspase-3 = target: T5, Caspase-3 (Homo sapiens, UniProt P42574); format: functional;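 note: Dose-response selectivity test against caspase-3 for candidate inhibitors of sentrin-specific proteases (SENPs)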
# T5 sequence (P42574 whole entry): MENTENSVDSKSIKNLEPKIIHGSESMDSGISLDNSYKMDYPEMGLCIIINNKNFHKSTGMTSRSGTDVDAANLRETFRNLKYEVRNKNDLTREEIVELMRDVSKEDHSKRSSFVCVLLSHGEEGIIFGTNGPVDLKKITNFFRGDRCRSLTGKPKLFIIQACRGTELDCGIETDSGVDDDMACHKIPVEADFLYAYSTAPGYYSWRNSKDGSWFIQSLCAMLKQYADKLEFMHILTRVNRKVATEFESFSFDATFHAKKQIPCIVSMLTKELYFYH
# [10] = target: T6, Sentrin-specific protease 8 (Homo sapiens, UniProt Q96LD8); format: functional;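 note: luminescence read-out of SENP8 inhibition, dose-response confirmation following an ultra-high-throughput screen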
# T6 sequence (Q96LD8 whole entry): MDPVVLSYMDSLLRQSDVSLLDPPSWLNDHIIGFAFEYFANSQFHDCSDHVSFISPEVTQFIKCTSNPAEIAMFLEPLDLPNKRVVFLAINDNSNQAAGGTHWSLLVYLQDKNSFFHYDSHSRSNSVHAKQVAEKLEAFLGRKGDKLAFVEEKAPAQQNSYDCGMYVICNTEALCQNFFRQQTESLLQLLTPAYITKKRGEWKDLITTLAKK
# [11] = target: T7, Sentrin-specific protease 6 (Homo sapiens, UniProt Q9GZR1); format: functional;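 note: Luminescence-based dose-response confirmatory assay of SENP6 inhibition, following up an ultra-high-throughput screen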
# T7 sequence (Q9GZR1 whole entry): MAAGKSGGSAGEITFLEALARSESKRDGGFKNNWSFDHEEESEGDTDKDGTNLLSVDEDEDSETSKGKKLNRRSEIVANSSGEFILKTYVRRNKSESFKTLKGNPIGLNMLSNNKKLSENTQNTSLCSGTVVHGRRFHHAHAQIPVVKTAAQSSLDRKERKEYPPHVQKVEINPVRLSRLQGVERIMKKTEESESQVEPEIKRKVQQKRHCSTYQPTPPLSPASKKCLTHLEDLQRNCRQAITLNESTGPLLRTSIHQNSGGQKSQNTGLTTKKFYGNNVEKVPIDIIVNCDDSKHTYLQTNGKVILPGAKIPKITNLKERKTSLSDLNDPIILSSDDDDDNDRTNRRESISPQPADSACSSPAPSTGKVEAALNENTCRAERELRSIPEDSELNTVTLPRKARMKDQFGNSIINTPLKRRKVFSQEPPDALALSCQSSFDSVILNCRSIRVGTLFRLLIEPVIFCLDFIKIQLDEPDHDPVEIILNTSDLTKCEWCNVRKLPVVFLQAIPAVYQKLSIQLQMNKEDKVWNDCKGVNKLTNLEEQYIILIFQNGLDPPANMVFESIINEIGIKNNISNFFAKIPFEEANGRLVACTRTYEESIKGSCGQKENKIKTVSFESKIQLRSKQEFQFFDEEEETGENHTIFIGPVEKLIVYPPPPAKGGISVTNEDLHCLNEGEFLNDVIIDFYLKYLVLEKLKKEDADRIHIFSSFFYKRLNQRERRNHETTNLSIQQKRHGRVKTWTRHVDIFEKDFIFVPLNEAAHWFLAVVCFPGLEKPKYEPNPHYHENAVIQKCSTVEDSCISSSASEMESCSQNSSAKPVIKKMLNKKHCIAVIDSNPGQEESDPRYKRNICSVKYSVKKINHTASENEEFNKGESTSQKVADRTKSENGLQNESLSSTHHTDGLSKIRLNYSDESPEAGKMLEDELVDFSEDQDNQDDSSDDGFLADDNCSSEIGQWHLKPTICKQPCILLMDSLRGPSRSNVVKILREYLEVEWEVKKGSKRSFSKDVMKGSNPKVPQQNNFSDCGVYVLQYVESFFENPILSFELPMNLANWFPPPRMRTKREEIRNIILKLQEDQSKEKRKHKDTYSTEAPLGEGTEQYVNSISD
# [12] = target: T8, Oxysterols receptor LXR-beta (Homo sapiens, UniProt P55055); format: functional, cell-based
# T8 sequence (P55055 whole entry): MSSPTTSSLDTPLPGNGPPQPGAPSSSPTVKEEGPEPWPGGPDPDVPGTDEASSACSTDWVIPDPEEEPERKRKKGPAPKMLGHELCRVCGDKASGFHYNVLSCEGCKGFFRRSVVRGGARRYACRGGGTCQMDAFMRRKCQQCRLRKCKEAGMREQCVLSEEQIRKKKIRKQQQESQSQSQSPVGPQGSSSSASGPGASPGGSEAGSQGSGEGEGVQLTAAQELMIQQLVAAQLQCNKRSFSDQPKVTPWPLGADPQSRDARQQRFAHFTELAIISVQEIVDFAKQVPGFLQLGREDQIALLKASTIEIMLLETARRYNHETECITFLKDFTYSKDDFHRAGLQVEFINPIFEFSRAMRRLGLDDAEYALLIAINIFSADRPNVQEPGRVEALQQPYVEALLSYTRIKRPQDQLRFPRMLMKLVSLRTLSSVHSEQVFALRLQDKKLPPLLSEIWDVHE
# cells [13] = experiment: cells; remark: listed apart in the source
# [14] = target: T8, Oxysterols receptor LXR-beta; format: functional, cell-based; remark: listed apart in the source
# [15] = target: T8, Oxysterols receptor LXR-beta; experiment: LXR agonists, Gal4 luciferase reporter, dose response, counter-screen for ssDAF-12 agonist project, cell-based, luminescence, HEK293, S. stercoralis campaign (AID 720737); format: functional; details: read-out: IC50 (the source's name)
# [16] = target: T3, Endoribonuclease toxin MazF; experiment: substrate-only fluorescence increase artefacts – biochemical, single-stranded RNase substrate, counter-screen for MazEF activator project, dose response (AID 588502); format: functional
# HeLa = experiment: viability loss in HeLa cells – cell-based, ATP luminescence, cherry-pick samples, cytotoxicity control, dose response (AID 687004); format: functional; details: Homo sapiens
smiles,measurement,setting,value
Cc1ccc(C(=O)NC(=S)Nc2ccc(N3CCOCC3)cc2)cc1,AC50,HEK293,20.1 µM (active)
same,AC50,[1],20.1 µM (active)
CCN(CC)c1ccc2cc(C#N)c(=O)oc2c1,AC50,cells [2],0.575 µM (active)
same,EC50,[3],76.3 µM (active)
same,EC50,[4],63 µM (inconclusive)
COc1ccccc1NS(=O)(=O)c1cc(NC(=O)c2cc(F)c(F)c(F)c2F)ccc1N1CCOCC1,IC50,[5],> 69.5 µM (inactive)
same,IC50,[6],> 69.5 µM (inactive)
OC(c1ccccc1)(c1nc(-c2ccc3c(c2)OCO3)cs1)C(F)(F)F (stereo not drawn),IC50,[5],> 69.5 µM (inactive)
same,IC50,[6],> 7.73 µM (active)
C(=N\NC1=Nc2cccc3cccc1c23)/c1ccccc1,EC50,[7],> 99 µM (inactive)
same,IC50,[8],5.42 µM (active)
same,IC50,[9],> 67.5 µM (inactive)
same,IC50,Caspase-3,30.1 µM (active)
same,IC50,[10],> 100 µM (inactive)
same,IC50,[11],> 100 µM (inactive)
same,EC50,[12],> 67.5 µM (inactive)
same,EC50,cells [13],> 67.5 µM (inactive)
same,EC50,[14],> 67.5 µM (inactive)
same,EC50,[15],> 67.5 µM (inactive)
same,EC50,[16],> 99 µM (inactive)
C[C@@H]1CN([C@H](C)CO)C(=O)c2cccc(NC(=O)Nc3ccccc3)c2O[C@@H]1CN(C)Cc1ccc(Cl)c(Cl)c1,AC50,HEK293,9.06 µM (active)
same,AC50,HeLa,45.7 µM (active)
same,AC50,[1],9.06 µM (active)

# From ChEMBL document CHEMBL1201862, “PubChem BioAssay data set” (2004)
